We go through two molecules from patent publication US20230079439A1, “Compositions and Methods for Enhancing Beta Cell Maturation, Health and Function” (THE REGENTS OF THE UNIVERSITY OF CALIFORNIA, priority 2016, published 2023).

One assay has as its system isolated mouse islets. As to the kind of experiment: GSIS test in isolated mouse islets. It counts as cell-based. To be noted: 24 h; 2.5 or 16.7 mM glucose. As for the experimental part:
Mice (6 in total) were euthanized by cervical dislocation; the mouse torso was saturated with 70% ethanol. The abdominal cavity was opened completely from anus to diaphragm. The body and tail of the pancreas were removed and separated from fat and large vessels. The pancreas was washed once with HBSS solution and cut into small pieces of approximately 2×3 mm with a scissors. After an additional wash with HBSS solution, the pieces of pancreas were placed in two 50 ml Falcon tubes containing 4 ml of a freshly prepared solution of collagenase (2 mg/ml). After vigorous shaking at 37° C. for approximately 20 min, the collagenase digestion was interrupted by adding 45 ml of ice-chilled HBSS solution. The digested pancreatic tissue was spinned down at 330×g for 3 minutes. Supernatant was removed again and an additional 45 mL of “islet media” was added and spinned down at 330×g for 3 minutes. The histopaque was decanted and the tubes were inverted to drain on an absorbent paper towel for 1 min. The pellet was resuspended in 20 ml for each tube in cold 30% Ficoll solution. […]
Frozen islets medium or lysates were thawed on ice and diluted with water (a typical dilution for the lysate was 300× and for the supernatant—5×). […] The signal was determined by a SpectraMax M5 spectrophotometer. The concentrations of insulin in the samples were normalized by the total protein determined by the BCA assay.

Assay [1] relates to INS-1E cells. In words: Cell counting (trypan blue) / proliferation and cluster formation. To be noted: 24 h. It is filed as cell-based, rat. The procedure: FIG. 7, comprising FIG. 7A through FIG. 7G, depicts the evaluation of the biological activity of HSA-28P in INS-1E cells. FIG. 7A depicts dose-response analysis of the effect of HSA-28P on the rate of insulin secretion in INS-1E cells. The INS-1E cells were grown and trypsinized as described in Methods. Subsequently, cells were mixed with the indicated concentrations of HSA-28P (red columns), non-relevant peptide nanoparticles (NRPNP, green columns), and naked nanoparticles (NP, blue columns) and were seeded in 12-well plates. After 24 h the cells were taken to a GSIS in the presence of 2.5 mM (weak color bars) or 16.7 mM (strong color bars) glucose. FIG. 7B depicts time-course analysis of the effect of HSA-28P on the rate of insulin secretion in INS-1E cells. The INS-1E cells were prepared for the experiment as described above with 1.34 μM of both HSA-28P or NRPNP, and 0.76 μg/ml of NP. After incubation for the time indicated in the graph, the cells were taken to a GSIS as described in Methods. FIG. 7C depicts the measurement of insulin content. The RIA-assay was performed for INS-1E lysates. […] INS-1E cells were treated as described in Panel D. Cells were detached by trypsin and counted as described in Methods and then were visualized with a Cells Sense Live Imaging microscope. […]
Cells were detached by trypsin and colored by Trypan blue. Only uncolored cells were counted. […]

In assay [2] the test system is INS-1E cells. In words: Insulin secretion of INS-1E cells after 5 h incubation with peptidomimetic agent. It counts as cell-based, rat. To be noted: INS-1 β cells. As for the experimental part: FIG. 22, comprising FIG. 22A through FIG. 22C, depicts experimental results of incubation of INS1E cells with peptidomimetic agent. A peptidomimetic agent was designed to mimic neuroligin's binding site for neurexin. Monomers and dimers had no effect on insulin secretion. Multiple dimers were conjugated to PEG-2000 to simulate clustering (reagent HSA-112). Dimers were also clustered on nanoparticles (HSA-637). FIG. 22A depicts INS-1E cells were incubated for 5 h with HSA-112 (blue columns) or HSA-637 (purple) at different concentrations or with vehicle alone (black), washed, and then tested for insulin secretion at 3 mM glucose (striped columns) or at 20 mM glucose (solid columns). […] FIG. 22B depicts a time course: insulin secretion was analyzed after the number of hours indicated following a 5 h incubation with 100 μM HSA-112 (blue), 500 nM HSA-637 (purple) or vehicle alone (black). Incubations were with 3 mM glucose (striped columns) or 20 mM glucose (solid columns). FIG. 22C depicts microscopy where INS-1E cells were incubated with HSA-637 conjugated to a fluorescent dye (Cy5, red) and then washed. Membranes were stained with Alexa Fluor 488 (green). For better visualization, microscopy was in hypotonic saline causing the INS-1E cells to swell and become more rounded.

Assay [3] concerns INS-1E cells. As to the kind of experiment: Glucose-stimulated insulin secretion (GSIS) in INS-1E cells. It counts as cell-based, rat. To be noted: INS-1E cells; 2.5 mM or 16.7 mM glucose. As for the experimental part: FIG. 3, comprising FIG. 3A through FIG. 3D, depicts the evaluation of the biological activity of HSA-112 in INS-1E cells. FIG. 3A depicts a dose-response analysis of the effect of HSA-112 on the rate of insulin secretion in INS-1E cells. The INS-1E cells were grown and treated with increasing doses of HSA-112 for 24 h, as described in Methods. Subsequently, cells were mixed with different concentrations of HSA-112, as indicated in the graph (red columns), PEG2000 (green columns), and free peptide (blue columns) and were seeded in 12-well plates. After 24 h the cells were taken to a GSIS in the presence of 2.5 mM (weak color bars) or 16.7 mM (strong color bars) glucose. FIG. 3B depicts the time-course analysis of the effect of HSA-112 on the rate of insulin secretion in INS-1E cells. The INS-1E cells were prepared for the experiment as described above with 50 μM of HSA-112, PEG2000, or free peptide. After incubation, as indicated in the graph, the cells were taken to a GSIS as described above. FIG. 3C depicts the cell protective effect of HSA-112 under oxidative stress conditions. Cells were prepared for the experiment as described in Methods. Trolox was used as a positive control at a concentration of 100 μM. The oxidative stress was induced in the tissue culture, as described in Methods. Standard MTT analysis (also described in Methods) was used for evaluating the effect of HSA-112 on cell viability. FIG. 3D depicts INS-1E cell proliferation. Cells were prepared for the experiment as described above. After 24 h the cells were colored by trypan blue and counted as described in Methods *p<0.05, n=6. MEAN±SE.
FIG. 7, comprising FIG. 7A through FIG. 7G, depicts the evaluation of the biological activity of HSA-28P in INS-1E cells. FIG. 7A depicts dose-response analysis of the effect of HSA-28P on the rate of insulin secretion in INS-1E cells. The INS-1E cells were grown and trypsinized as described in Methods. Subsequently, cells were mixed with the indicated concentrations of HSA-28P (red columns), non-relevant peptide nanoparticles (NRPNP, green columns), and naked nanoparticles (NP, blue columns) and were seeded in 12-well plates. After 24 h the cells were taken to a GSIS in the presence of 2.5 mM (weak color bars) or 16.7 mM (strong color bars) glucose. FIG. 7B depicts time-course analysis of the effect of HSA-28P on the rate of insulin secretion in INS-1E cells. The INS-1E cells were prepared for the experiment as described above with 1.34 μM of both HSA-28P or NRPNP, and 0.76 μg/ml of NP. After incubation for the time indicated in the graph, the cells were taken to a GSIS as described in Methods. FIG. 7C depicts the measurement of insulin content. The RIA-assay was performed for INS-1E lysates. FIG. 7D depicts the Effect of HSA-28P on the cells viability under oxidative stress conditions. INS-1E cells were incubated for 24 h with a medium supplemented with HSA-28P (3 μM), or HSA-28P1/2 (1.5 μM), or NPs covered by phantom random peptide (PPNP, 3 μM), or NP (0.76 μg/ml), or HSA-28 (3 μM) and trolox, as a positive antioxidant control (1 mM). After the incubation time, 50 mU/ml of glucose oxidase (GO) was added for an additional 1.15 h. Upon completion of the experiments, a standard MTT assay was conducted as described in Methods. Cell viability is presented as a percentage in comparison to non-treated cells. FIG. 7E depicts the effect of HSA-28P on the cell proliferation rate. Experiments were conducted on INS-1E cells that were seeded in 6-well plates. INS-1E cells were treated as described in Panel D. Cells were detached by trypsin and counted as described in Methods and then were visualized with a Cells Sense Live Imaging microscope. FIG. 7F depicts light microscope images of untreated cells. FIG. 7G depicts light microscope images of cells that were treated with HSA-28P. *p<0.05, n=3. MEAN±SE. […]

`N=C(N)NCCC[C@H](N)C(=O)O` [L-arginine]: the “effect on GSIS in isolated mouse islets” value with isolated mouse islets is “significantly raised GSIS”.
Regarding “QQGEFLNYD [HSA-28, short NL-2 mimetic peptide derived from the NL-4/NX-1 crystal complex]”, in the assay on INS-1E cells [1], the “amount of cells / proliferation rate” value was “has not shown any effect on the proliferation rate”. For the same molecule, in the assay with INS-1E cells [2], the “effect on insulin secretion” value is on record as “had no effect”. Also, the “effect on GSIS” value with INS-1E cells [3] is on record as “did not increase the GSIS”.
